Key:
Mouse TNFα = target: T1, Mouse TNFα (Mus musculus, UniProt P06804); assay: Monomer exchange mass spectrometry, compound pre-incubated with m-TNFα; assay type: binding; conditions: 1:1 complex mixed with h-TNFα
T1 construct: made in house
T1 sequence (P06804 80-235 limits assumed): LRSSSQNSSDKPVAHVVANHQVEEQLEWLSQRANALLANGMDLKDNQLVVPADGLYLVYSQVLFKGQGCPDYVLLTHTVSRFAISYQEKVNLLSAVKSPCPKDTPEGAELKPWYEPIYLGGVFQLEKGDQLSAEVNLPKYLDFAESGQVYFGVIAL
Procedure: The experiment was then repeated in reverse. Excess compound of formula 3 was incubated with Mouse TNFα, the excess compound of formula (3) was then removed. Mass Spectral analysis confirmed that a 1:1 complex had been formed between the compound of formula (3) and m-TNFα. Human TNFα was now added to this sample which was then subjected to mass spectral analysis over a number of hours. […] In addition there was evidence of formation of the ligated human homotrimer (H3L), the unligated mouse homotrimer (M3) and for unbound compound of formula (3) (L). […] Once this complex (M3L) has dissociated, monomer subunit exchange between the H3 and M3 species proceeds and the liberated ligand is then able to form complexes with all 4 trimer species present in solution.

[1] = system: hTNFα-induced neutrophil recruitment; assay: Neutrophil recruitment in mice, compound pre-mixed with hTNFα, i.p.; assay type: in vivo, Balb/c mice; conditions: for neutrophil recruitment vs TNFα in the absence of the compound: sample 1, ratio compound:TNFα 0.1:1, i.p.
Procedure: In separate studies, compounds of formula (3) and formula (15) were mixed with 20 μM solutions of TNFα dissolved in phosphate buffered saline (PBS) to a concentration of 2 μM, 20 μM and 200 μM. The ratio of each compound to TNFα was, therefore, 0.1:1 (sample 1), 1:1 (sample 2) and 10:1 (sample 3). […] This process separates protein bound compound and free compound. A control sample containing PBS only was processed in the same way to provide a vehicle control for the study. The concentration of eluted protein was determined using a Nanodrop (ND-1000). The TNFα: compound complexes were diluted in PBS to a concentration for injection of 0.03 μg/kg
For the study, typically, each group contained 10 male Balb/c mice (Charles River) apart from an anti-human TNFα antibody positive control, which used a set of 5 mice.
Compound only mice were also included in the study to assess the effect of compound on neutrophil recruitment.
All mice were killed by cervical dislocation two hours post-injection of hTNFα (t=2 h) and the peritoneal cavity was lavaged with 3 mL of FACS buffer (500 mL PBS containing 2 g bovine serum albumin, 6 mL HEPES buffer and […]). Lavage fluid was aspirated and neutrophil numbers were assessed by staining cells with anti-Gr1 PE and anti-CD45 FITC by FACS as detailed below.
100 μL of lavage fluid from each sample was aliquoted into FACS tubes. A FACS cocktail was made up using anti-GR-1 PE (BD cat #553128 Lot #75542) at 1 in 39 dilution and anti-CD45 FITC (BD cat #553080 Lot #80807) at 1 in 19 dilution in FACS buffer. Fc block (BD Cat #553142 Lot #87810) was prepared 1 in 10 with FACS buffer and 10 μL added to each sample 5 minutes before adding the antibody cocktail. […] Samples were then left for 20 mins on ice. 1 mL of FACS Lyse solution (BD Cat #349202 Lot #29076, diluted 1:10 in dH2O) was added to each tube, mixed and left at room temperature for 5 minutes. 1 mL of FACS Buffer was then added to each tube and centrifuged at 400 g for 5 minutes. The FACS buffer was then carefully poured off and the tip of the tube dabbed on absorbent paper to leave the tube completely dry. Then […] of 1 in 10 Reference Bead solution (Sigma cat #P2477 Lot #116K1612) diluted in FACS buffer was added to each tube.
Samples were analysed using FACScalibur II and FloJo software.

[2] = system: hTNFα-induced neutrophil recruitment; assay: Neutrophil recruitment in mice, compound given orally before hTNFα i.p.; assay type: in vivo, Balb/c mice
Procedure: In a further experiment, mice were treated with hTNFα (0.3 μg/ml) and the compound of formula (3) was administered orally (p.o.).
The compound of formula (3) was made into a suspension in 1% methylcellulose vehicle using a covaris machine.
An anti-human TNFα monoclonal antibody (anti-hTNFα, UCB) was also utilised as a positive control in this study.
Ten male Balb/c mice were used per group except in the group that received anti-hTNFα for which 4 mice were used.
Mice received 100 μL of either vehicle (1% methylcellulose) or compound of formula (3) at 30 mg/kg or 100 mg/kg p.o. 30 minutes (t=−30) or anti-hTNFα at 10 mg/kg i.p. 5 minutes (t=−5) prior to being injected with human TNFα.
All mice were killed by cervical dislocation two hours post-injection of hTNFα (t=2 h) and the peritoneal cavity was lavaged and neutrophil numbers measured as described above.

[3] = system: TNFα-induced NF-κB activation; assay: HEK-Blue CD40L NF-κB reporter gene assay, TNFα stimulus; assay type: cell-based; conditions: TNFα 0.5 ng/mL
Procedure: (§1) Stimulation of HEK-293 cells by TNF-alpha leads to activation of the NF-kB pathway. The reporter cell line used to determine TNF alpha activity was purchased from Invivogen. HEK-Blue™ CD40L, is a stable transfectant expressing SEAP (secreted alkaline phosphatase) under the control of the IFN-beta minimal promoter fused to 5 NF-kB binding sites. Secretion of SEAP by these cells is stimulated in a concentration dependent manner by TNF-alpha (0.5 ng/ml), IL-1-beta (0.5 ng/ml) and an activating anti-human TNFR1 antibody (300 ng/ml).
Compounds were diluted from 10 mM DMSO stocks (final assay concentration 0.3%) to generate a 10 point 3 fold serial dilution curve (30,000 nM to 2 nM final concentration). They were mixed with stimulating ligand for 1 hour in a 384 well microtitre plate. […] SEAP activity was determined in the supernatant using the colorimetric substrate Quanti-Blue™ (Invivogen).
(§2) Percentage inhibitions for compound dilutions were calculated between a DMSO control and maximum inhibition (by excess control compound) and an IC50 calculated using xlfit (4 parameter logistic model) in Activity Base.
C87 was preincubated with TNFα for 1 hour prior to the addition to HEK-293 cells stably transfected with SEAP under the control of NFκB. […] The assay was incubated overnight before inhibition was measured compared to 100% blocking by a control compound. […]

IL-1β = assay: HEK-Blue NF-κB reporter gene counterscreen, IL-1β stimulus; assay type: cell-based; conditions: IL-1β 0.5 ng/mL
Procedure: as §1
Compounds were diluted from 10 mM DMSO stocks (final assay concentration 0.3%) to generate a 10 point 3 fold serial dilution curve (30,000 nM to 2 nM final concentration). They were mixed with stimulating ligand for 1 hour in a 384 well microtitre plate. Freshly thawed and washed cells were added to the compound/stimulus mixture and further incubated for 18 hours. SEAP activity was determined in the supernatant using the colorimetric substrate Quanti-Blue™ (Invivogen).
as §2
The specific activity of the compound of formula (15) against the TNF-alpha response was compared to that seen with the counterscreens (IL-1beta and anti-human TNFR1 antibody).

[4] = sample 2, ratio compound:TNFα 1:1, i.p.
[5] = sample 3, ratio compound:TNFα 10:1, i.p.

Row | Structure (SMILES) | off-rate when complexed with m-TNFα (Mouse TNFα) | neutrophil recruitment vs TNFα in the absence of the compound [1] | inhibition of neutrophil recruitment [1, 4] [%] | inhibition of neutrophil recruitment [1, 5] [%] | reduction of TNFα stimulated neutrophil recruitment into the peritoneal cavity ([2]; 30 mg/kg p.o.) [%] | reduction of TNFα stimulated neutrophil recruitment into the peritoneal cavity ([2]; 100 mg/kg p.o.) [%] | IC50 [3] [nM] | inhibition of activation of NF-κB by IL-1β (IL-1β)
1 | Cc1ccc(C)c(Cn2c(C(O)c3ccncc3)nc3ccccc32)c1 (stereo not drawn) [Compound 3] | measurable off-rate | not significantly different | 86 | 85 | 49 | 79 | – | –
2 | Cc1ccc(C)c(Cn2c(C(O)c3ccncc3)nc3ccc(-c4cnn(C)c4)cc32)c1 (stereo not drawn) [Compound 15] | no measurable off-rate | not significantly different | 101 | 102 | – | – | 113 | did not inhibit
